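1) Cells in 96-well plates. 2) Compound, 48 h, 5 concentrations. 3) Linear interpolation between surrounding doses. 4) Unreached endpoint = highest concentration. GI50: concentration for 50% inhibition of growth. At the TGI there is no net growth.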
Key:
Experiment in all cases: NCI-60 cell line screen, 48 h
RXF 393 renal = tested on: RXF 393 renal
SNB-19 CNS = tested on: SNB-19 CNS
HL-60(TB) leukemia = tested on: HL-60(TB) leukemia
OVCAR-8 ovarian = tested on: OVCAR-8 ovarian
HCT-15 colon = tested on: HCT-15 colon
M14 melanoma = tested on: M14 melanoma
SN12C renal = tested on: SN12C renal
A549 NSCLC = tested on: A549 NSCLC
A498 renal = tested on: A498 renal
SW-620 colon = tested on: SW-620 colon

Compound | GI50 (RXF 393 renal) | TGI (RXF 393 renal) | GI50 (SNB-19 CNS) | TGI (SNB-19 CNS) | GI50 (HL-60(TB) leukemia) | TGI (HL-60(TB) leukemia) | GI50 (OVCAR-8 ovarian) | TGI (OVCAR-8 ovarian) | GI50 (HCT-15 colon) | TGI (HCT-15 colon) | GI50 (M14 melanoma) | TGI (M14 melanoma) | GI50 (SN12C renal) | TGI (SN12C renal) | GI50 (A549 NSCLC) | TGI (A549 NSCLC) | GI50 (A498 renal) | TGI (A498 renal) | GI50 (SW-620 colon) | TGI (SW-620 colon)
Oc1ccc(-c2nc(-c3ccc(F)cc3)c(-c3ccncc3)[nH]2)cc1 | 8.92 µM | 43.2 µM | 35.3 µM | > 100 µM | 18.1 µM | 67.1 µM | 22.1 µM | > 100 µM | 13.2 µM | > 100 µM | 4.02 µM | 20.3 µM | 14.9 µM | > 100 µM | 25.8 µM | > 100 µM | 16.7 µM | 48.5 µM | 32.1 µM | > 100 µM
C=C1C(=O)C23C(O)C1CCC2C12CO[C@]3(O)[C@@H](O)C1C(C)(C)CCC2O (stereo not given in full) |  | 20.6 µM |  | 28.6 µM |  | > 100 µM |  | 20.5 µM |  | 26.4 µM |  | 24.1 µM |  | 27.9 µM |  | 34.6 µM |  | 36.5 µM |  | 23.8 µM
COc1cc(-c2cn(-c3ccc(Cl)cc3)c(=O)n2-c2ccccc2)cc(OC)c1OC | 25.4 µM | > 81.9 µM | 44.7 µM | > 100 µM | 3.35 µM | > 38.5 µM | 40.8 µM | > 100 µM | > 100 µM | > 100 µM | > 100 µM | > 100 µM | > 100 µM | > 100 µM | > 46.6 µM | > 100 µM | 18.7 µM | > 92.4 µM | > 100 µM | > 100 µM
COc1cc(C2c3cc4c(cc3[C@@H](OCCN)[C@H]3COC(=O)C23)OCO4)cc(OC)c1O (stereo not given in full) |  | 2.35 µM |  | 1.93 µM |  | 0.0633 µM |  | 2.61 µM |  | 24.7 µM |  | 3.34 µM |  | 0.562 µM |  | 1.34 µM |  | 1.67 µM |  | 2.45 µM
COc1cc2nc(-c3ccc(Cl)cc3)cc(OCCCN3CCC(O)CC3)c2cc1OC | 1.22 µM | 4.07 µM | 3.19 µM | 16.9 µM | 4.27 µM | 18.7 µM | 2 µM | 20.7 µM | 0.763 µM | 12.5 µM | 0.591 µM | 2.21 µM | 1.26 µM | 22.1 µM | 2.2 µM | 14.8 µM | 1.53 µM | 3.83 µM | 3.05 µM | 13 µM
Cn1cc(-c2ccc3c(c2)ncn3-c2ccc(CC(=O)Nc3cc(C(C)(C)C)on3)cc2)cn1 | 0.173 µM | 0.908 µM | 3.5 µM | > 100 µM | 3.33 µM | 9.65 µM | 3.16 µM | > 43.3 µM | 1.19 µM | > 40.9 µM | 1.1 µM | 10.5 µM | 0.379 µM | 8.09 µM | 1.49 µM | 8.76 µM | 0.122 µM | 0.461 µM | 2.44 µM | > 100 µM
C/C=C(\C)C(=O)O[C@@H]1C=CC(=O)O[C@H]1COC(=O)[C@H](C)O | 6.51 µM | 30 µM | 19.8 µM | 56 µM | 4.41 µM | 21.3 µM | 18.1 µM | > 100 µM | 5.68 µM | 19.5 µM | 11.1 µM | 30 µM | 14.5 µM | 30.2 µM | 18.7 µM | 51.9 µM | 15.2 µM | 30.4 µM | 4.79 µM | 15.9 µM
COC(=O)C1(C)CCc2c(ccc3ccccc23)C1=O (stereo not given) |  | 67.5 µM |  | > 100 µM |  | > 100 µM |  | > 100 µM |  | > 100 µM |  | 83.8 µM |  | > 100 µM |  | > 100 µM |  | 81 µM |  | > 100 µM
COc1ccc(N=C/C=C/C(=C/COC(C)=O)OC(C)=O)cc1 |  | 57.4 µM |  | > 100 µM |  | 98.5 µM |  | > 100 µM |  | > 100 µM |  | > 100 µM |  | 74.9 µM |  | > 100 µM |  | 62.9 µM |  | 32.6 µM
C#CCSc1nnnn1-c1ccc(Br)c(C)c1 | 27.3 µM | > 100 µM | 74 µM | > 100 µM | 27.3 µM | 87 µM | 20.3 µM | > 100 µM | 29 µM | > 100 µM | 31.1 µM | > 100 µM | 19.1 µM | > 100 µM | 38 µM | > 100 µM | 18.9 µM | 81.1 µM | 19.1 µM | 52.1 µM
c1ccc(CNc2nc(Nc3ccc(-c4nc5ccccc5[nH]4)cc3)c3cn[nH]c3n2)cc1 | 1.57 µM | 3.65 µM | 4.27 µM | 31.3 µM | 2.54 µM | 7.44 µM | 2.57 µM | 6.73 µM | 1.89 µM | 7.65 µM | 1.72 µM | 3.81 µM | 2.75 µM | 7.37 µM | 2.89 µM | 8.92 µM | 2.93 µM | 8.22 µM | 2.69 µM | 6.62 µM
COc1ccc(Nc2nc3c(N)cc(C(F)(F)F)cc3nc2-c2ccccc2)cc1 |  | 68.2 µM |  | > 100 µM |  | > 100 µM |  | > 100 µM |  | > 100 µM |  | > 100 µM |  | > 100 µM |  | > 100 µM |  | > 100 µM |  | > 100 µM
CC1(C)CCC(CN2CCN(c3ccc(C(=O)NS(=O)(=O)c4ccc(NCC5CCOCC5)c([N+](=O)[O-])c4)c(Oc4cnc5[nH]ccc5c4)c3)CC2)=C(c2ccc(Cl)cc2)C1 | 1.57 µM | 3.48 µM | 3.55 µM | 23.8 µM | 0.25 µM | 2.33 µM | 3.22 µM | 16.5 µM | 3.1 µM | 11.2 µM | 2.54 µM | 7.07 µM | 2.82 µM | 11.8 µM | 2.4 µM | 11.8 µM | 1.58 µM | 4.43 µM | 3.95 µM | 16.8 µM
